Reference: publication PMC11288129, “Diversely evolved xibalbin variants from remipede venom inhibit potassium channels and activate PKA-II and Erk1/2 signaling” (BMC Biology, 2024)
Entries after “also recorded” stand apart in the source; their conditions may differ. Marks after values point to notes of the source that are not given here. Positions of bridges follow the written chain, without caps; N, C: chain ends. No end group written: not given here.

Legend:
Kv1.3 = experiment: TEVC inhibition, Kv1.3; format: cell-based, human; parameters: unit not given here; details: 1 µM
Description: (§1) For the expression of Kv channels rat Kv1.1 (GenBank accession number: NM_173095 [88, 89]), rKv1.2 (NM_012970 [90, 91]), human Kv1.3 (NM_002232 [92, 93]), rKv1.4 (NM_012971 [94, 95]), rKv1.6 (NM_023954 [96, 97]), hKv2.1 (NM_004975 [98, 99]), hKv3.1 (NM_004976 [100, 101]), rKv4.2 (NM_031739 [102, 103]), hKv10.1 (NM_172362 [104, 105]), hERG1 [Kv11.1, (NM_000238 [106, 107])], and Shaker IR [from Drosophila melanogaster, (NM_167595 [108, 109])], Nav channels [rNav1.2 (NM_012647 [42, 110]), rNav1.4 (NM_013178 [111, 112]), hNav1.5 (NM_198056 [113, 114]), mNav1.6 (NM_001077499 [115, 116]), BgNav [from Blattella germanica, (DQ466887 [117, 118])] and the auxiliary subunits rβ1 (NM_001271045 [119, 120]), hβ1 (NM_001037 [121, 122]), and TipE [from D. melanogaster, (NM_079196 [109, 123])], and Cav channels hCav3.1 [124, 125], hCav3.2 [126, 127], and hCav3.3 [128, 129] in Xenopus oocytes, the linearized plasmids were transcribed using the T7 or SP6 mMESSAGEmMACHINE transcription kit (Ambion, Austin, TX, USA). Mature female animals were purchased from Nasco (Fort Atkinson, USA) and were housed in the Aquatic Facility (KU Leuven) in compliance with the regulations of the European Union (EU) concerning the welfare of laboratory animals as declared in Directive 2010/63/EU. The use of X. laevis oocytes was approved by the Animal Ethics Committee of the KU Leuven with the license number P186/2019. Stage V–VI oocytes were collected from anesthetized female X. laevis frog as previously described, with the frogs anesthetized by placement in 0.1% tricaine solution (amino benzoic acid ethyl ester; Merck, USA). Oocyte microinjection was performed using a microinjector (Drummond Scientifc®, USA), with a programmed cRNA injection volume of 4—50 nL, depending on the channel subtype. The oocytes were incubated in ND96 solution (96 mM NaCl, 2 mM KCl, 1.8 mM CaCl2, 2 mM MgCl2, and 5 mM HEPES, pH 7.4), supplemented with 50 mg/l gentamicin sulfate.
(§2) Electrophysiological measurements were performed at room temperature (18–22 °C) using the two-electrode voltage clamp (TEVC) technique. Data were obtained using a GeneClamp 500 amplifier (Axon Instruments, USA), and Clampex9 software (Axon Instruments), responsible for data acquisition and storage. Glass micropipettes were produced using glass capillaries (borosilicate WPI 1B120-6) and drawn in a WPI (World Precision Instruments, USA) manual stretcher. The bath and perfusion solutions were either the previously described ND96 (Nav and Kv channels) or calcium-free ND96 supplemented with 10 mM BaCl2 (Cav channels).
(§3) Whole-cell currents of oocytes were recorded 1 to 3 days after injection. Current and voltage electrodes were filled with 3 M KCl and their resistance was adjusted from 0.7 to 2.0 MΩ. Currents were sampled at 20 kHz (Nav channels) and 10 kHz (Kv and Cav channels) and filtered using a four-pole Bessel low-pass Bessel filter, at 1 kHz for sodium, and […] for potassium and calcium, except for the hERG ion channel, in which the currents were filtered at 1 kHz. Leak subtraction was performed using a -P/4 protocol. Kv1.x currents were evoked by 500 ms depolarizations to 0 mV followed by a 500-ms pulse to − 50 mV, from a holding potential of − 90 mV. Kv2.1, Kv3.1, and Kv4.2 currents were elicited by 500 ms pulses to + 20 mV from a holding potential of − 90 mV. Current traces of Kv10.1 were elicited by 2 s depolarization to 0 mV, from a holding potential of − 90 mV. Current traces of hERG1 channel were elicited by applying a + 40 mV prepulse for 2 s followed by a step of − 120 mV for 2 s. Sodium current traces were evoked by a 100 ms depolarization to 0 mV, from a holding potential of − 90 mV. The current–voltage (IV) relationships were determined by 100-ms step depolarizations between − 90 and + 40 mV, using 5 mV increments. […]

hNav1.5 = experiment: TEVC current-voltage relationship (Vhalf), Nav1.5; format: cell-based, human; parameters: Vhalf, toxin inactivation, Nav1.5 / Vhalf, toxin activation, Nav1.5: unit not given here; details: for Vhalf, toxin activation, Nav1.5 / Vhalf, toxin inactivation, Nav1.5: 1 µM
Description: as §1, §2, §3

rKv1.2 = experiment: TEVC inhibition, Kv1.2; format: cell-based, rat; details: 1 µM
Description: as §1, §2, §3

[1] = tested on: voltage-gated sodium channels (Nav); experiment: TEVC on panel of voltage-gated sodium channels; format: cell-based; details: 1 µM
Description: (§4) For the expression of Kv channels rat Kv1.1 (GenBank accession number: NM_173095 [88, 89]), rKv1.2 (NM_012970 [90, 91]), human Kv1.3 (NM_002232 [92, 93]), rKv1.4 (NM_012971 [94, 95]), rKv1.6 (NM_023954 [96, 97]), hKv2.1 (NM_004975 [98, 99]), hKv3.1 (NM_004976 [100, 101]), rKv4.2 (NM_031739 [102, 103]), hKv10.1 (NM_172362 [104, 105]), hERG1 [Kv11.1, (NM_000238 [106, 107])], and Shaker IR [from Drosophila melanogaster, (NM_167595 [108, 109])], Nav channels [rNav1.2 (NM_012647 [42, 110]), rNav1.4 (NM_013178 [111, 112]), hNav1.5 (NM_198056 [113, 114]), mNav1.6 (NM_001077499 [115, 116]), BgNav [from Blattella germanica, (DQ466887 [117, 118])] and the auxiliary subunits rβ1 (NM_001271045 [119, 120]), hβ1 (NM_001037 [121, 122]), and TipE [from D. melanogaster, (NM_079196 [109, 123])], and Cav channels hCav3.1 [124, 125], hCav3.2 [126, 127], and hCav3.3 [128, 129] in Xenopus oocytes, the linearized plasmids were transcribed using the T7 or SP6 mMESSAGEmMACHINE transcription kit (Ambion, Austin, TX, USA). […]
(§5) Whole-cell currents of oocytes were recorded 1 to 3 days after injection. […] The current–voltage (IV) relationships were determined by 100-ms step depolarizations between − 90 and + 40 mV, using 5 mV increments. […]

hKv2.1 = experiment: TEVC inhibition, Kv2.1; format: cell-based, human; parameters: unit not given here; details: 1 µM
Description: as §1, §2, §3

mNav1.6 = experiment: TEVC inhibition, Nav1.6; format: cell-based, mouse; details: 1 µM, Xenopus oocytes, ND96, 18–22 °C, mean ± SEM, n ≥ 3
Description: as §4, §5

rNav1.4 = experiment: TEVC current-voltage relationship (Vhalf), Nav1.4; format: cell-based, rat; parameters: Vhalf, toxin inactivation, Nav1.4 / Vhalf, toxin activation, Nav1.4: unit not given here; details: for Vhalf, toxin activation, Nav1.4 / Vhalf, toxin inactivation, Nav1.4: 1 µM
Description: as §1, §2, §3

Sequence | Inhibition data, Kv1.3 (Kv1.3; replicate 1) | Inhibition data, Kv1.3 (Kv1.3; replicate 2) | Inhibition data, Kv1.3 (Kv1.3; replicate 3) | Inhibition data, Kv1.3 (Kv1.3; replicate 4) | Vhalf, toxin activation, Nav1.5 (hNav1.5; replicate 1) | Vhalf, toxin inactivation, Nav1.5 (hNav1.5; replicate 1) | Vhalf, toxin activation, Nav1.5 (hNav1.5; replicate 2) | Vhalf, toxin inactivation, Nav1.5 (hNav1.5; replicate 2) | Vhalf, toxin activation, Nav1.5 (hNav1.5; replicate 3) | Vhalf, toxin inactivation, Nav1.5 (hNav1.5; replicate 3) | Inhibition data, Kv1.2 (rKv1.2; replicate 1) | Inhibition data, Kv1.2 (rKv1.2; replicate 2) | Inhibition data, Kv1.2 (rKv1.2; replicate 3) | inhibition of voltage-gated sodium channels [1] | Inhibition data, Kv2.1 (hKv2.1; replicate 1) | Inhibition data, Kv2.1 (hKv2.1; replicate 2) | Inhibition data, Kv2.1 (hKv2.1; replicate 3) | Inhibition data, Kv2.1 (hKv2.1; replicate 4) | inhibition of Nav1.6 (mNav1.6) [%] | Vhalf, toxin activation, Nav1.4 (rNav1.4; replicate 1) | further results
KRSCIRRFGRCDHRPNDCCYNSSCRCNLWGSNCRCQRMGLFQKWGK (disulfide 4-19, 11-24, 18-35, 26-33) [xib13] | 61.2 | 57.8 | 41.4 | 53.4 | -22.7699 | -59.4076 | -23.9735 | -59.2524 | -25.0967 | -59.4209 | 58.6 | 71.3 | 77.9 | inhibit voltage-gated sodium channels; also recorded: mild inhibition; also recorded: most significant inhibition rates | 0.0 | 0.0 | 0.0 | 0.0 | 10.7 ± 0.9 | -16.1478 | Vhalf activation shift, Nav1.5 (hNav1.5; 1 µM versus control (ND96)): 5.9*** mV; Vhalf activation shift, Nav1.4 (rNav1.4; 1 µM versus control (ND96)): 3.4 mV; Vhalf, toxin inactivation, Nav1.4 (rNav1.4; replicate 1): -45.0612; Vhalf, toxin activation, Nav1.4 (rNav1.4; replicate 2): -15.8394; Vhalf, toxin inactivation, Nav1.4 (rNav1.4; replicate 2): -52.747; Vhalf, toxin activation, Nav1.4 (rNav1.4; replicate 3): -14.4257; Vhalf, toxin inactivation, Nav1.4 (rNav1.4; replicate 3): -47.6866
RLFCIRHHKYCGHRPKRCCSGLFCRCNTFGTNCRCQSKGALGKLI (disulfide 4-19, 11-24, 18-35, 26-33) [xib1] | 59.5 | 65.4 | 60.6 | 62.3 | -27.2261 | -60.2865 | -20.8548 | -53.6522 | -24.2578 | -54.899 | 52.8 | 47.6 | 48.2 | inhibit voltage-gated sodium channels; also recorded: mild inhibition | 0.0 | 0.0 | 0.0 | 0.0 | 5.7 ± 1.2 | -19.1826 | Vhalf inactivation shift, Nav1.5 (hNav1.5; 1 µM versus control (ND96)): 1.5 mV; Vhalf, toxin activation, Nav1.5 (hNav1.5; replicate 4): -22.0356; Vhalf, toxin inactivation, Nav1.5 (hNav1.5; replicate 4): -51.823; inhibition of Kv1.2 (rKv1.2; Xenopus oocytes, ND96, 18–22 °C, mean ± SEM, n ≥ 3): 50.2 ± 2.6%; Inhibition data, Kv1.2 (rKv1.2; replicate 4): 46.0; Vhalf, toxin inactivation, Nav1.4 (rNav1.4; replicate 1): -47.3987; Vhalf, toxin activation, Nav1.4 (rNav1.4; replicate 2): -12.5775; Vhalf, toxin inactivation, Nav1.4 (rNav1.4; replicate 2): -44.7262; Vhalf, toxin activation, Nav1.4 (rNav1.4; replicate 3): -17.1419; Vhalf, toxin inactivation, Nav1.4 (rNav1.4; replicate 3): -46.0496
